Laboratory results from BigSolDB 2.1.

C#C[C@]1(O)CC[C@H]2[C@@H]3CCC4=CC(=O)CC[C@@H]4[C@H]3C(=C)C[C@@]21CC
solubility (mole fraction)
Conditions | 278.15 K | 283.15 K | 288.15 K | 293.15 K | 298.15 K | 303.15 K | 308.15 K | 313.15 K | 318.15 K | 323.15 K
in DMF | 0.0797 | 0.084 | 0.0882 | 0.093 | 0.0975 | 0.102 | 0.107 | 0.112 | 0.117 | 0.121
in isopropanol | 0.00597 | 0.00697 | 0.00803 | 0.00923 | 0.0106 | 0.0121 | 0.0137 | 0.0156 | 0.0174 | 0.0195
in n-propanol | 0.00504 | 0.00579 | 0.00677 | 0.00783 | 0.00901 | 0.0103 | 0.0117 | 0.0132 | 0.015 | 0.0168
in water | 1.48e-05 | 1.8e-05 | 2.15e-05 | 2.56e-05 | 3.11e-05 | 3.69e-05 | 4.3e-05 | 5.03e-05 | 5.85e-05 | 6.78e-05
